Tested on: 556581-035-R-J1-PDC complex spheroid growth
Assay: Anticancer human tumor 556581-035-R-J1-PDC patient-derived ovarian carcinoma cell line growth inhibition [Asc]
Conditions: for IC50: curve of first compound; for viability, T/C: stronger effect = lower value
In short: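 Concentration series start at each agent's clinical Cmax, or at 10 microM when none is established, and drop in half-log steps; agents are applied alone or together to complex spheroids built with HUVEC and hMSC.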

[1] = second compound 0.1 µM, first compound 0.0316 µM
[2] = second compound 0.1 µM, first compound 0.1 µM
[3] = second compound 0.1 µM, first compound 0.316 µM
[4] = second compound 0.1 µM, first compound 1 µM
[5] = second compound 0.1 µM, first compound 3.16 µM
[6] = second compound 0.1 µM, first compound 10 µM
[7] = second compound 0.316 µM, first compound 0.0316 µM
[8] = second compound 0.316 µM, first compound 0.1 µM
[9] = second compound 0.316 µM, first compound 0.316 µM
[10] = second compound 0.316 µM, first compound 1 µM
[11] = second compound 0.316 µM, first compound 3.16 µM
[12] = second compound 0.316 µM, first compound 10 µM
[13] = second compound 1 µM, first compound 0.0316 µM
[14] = second compound 1 µM, first compound 0.1 µM
[15] = second compound 1 µM, first compound 0.316 µM
[16] = second compound 1 µM, first compound 1 µM
[17] = second compound 1 µM, first compound 3.16 µM
[18] = second compound 1 µM, first compound 10 µM
[19] = second compound 3.16 µM, first compound 0.0316 µM
[20] = second compound 3.16 µM, first compound 0.1 µM
[21] = second compound 10 µM, first compound 0.0316 µM
[22] = second compound 10 µM, first compound 0.1 µM
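Further: spheroids exposed to agents for 7 days before viability read.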

SMILES: C=C(F)C(=O)N1CCN(c2nc(OCC3CCCN3C)nc3c2CCN(c2cccc4cccc(Cl)c24)C3)CC1CC#N (stereo not given) + CNC(C)C(=O)NC1CN(S(=O)(=O)c2cccc(S(=O)(=O)N3CCC4CCC(C(=O)NC(c5ccccc5)c5ccccc5)N4C(=O)C(NC(=O)C(C)NC)C3)c2)CCC2CCC(C(=O)NC(c3ccccc3)c3ccccc3)N2C1=O
- IC50 (second compound 0.01 µM): 2.63 µM
- IC50 (second compound 0.0316 µM): 1.88 µM
- IC50 (second compound 0.1 µM): 1.5 µM
- IC50 (second compound 0.316 µM): 1.07 µM
- IC50 (second compound 1 µM): 1.09 µM
- viability, T/C (second compound 0.01 µM, first compound 0.0316 µM): 85.3%
- viability, T/C (second compound 0.01 µM, first compound 0.1 µM): 85%
- viability, T/C (second compound 0.01 µM, first compound 0.316 µM): 83%
- viability, T/C (second compound 0.01 µM, first compound 1 µM): 86.6%
- viability, T/C (second compound 0.01 µM, first compound 3.16 µM): 43.2%
- viability, T/C (second compound 0.01 µM, first compound 10 µM): 0.21%
- viability, T/C (second compound 0.0316 µM, first compound 0.0316 µM): 83.9%
- viability, T/C (second compound 0.0316 µM, first compound 0.1 µM): 86.8%
- viability, T/C (second compound 0.0316 µM, first compound 0.316 µM): 86.5%
- viability, T/C (second compound 0.0316 µM, first compound 1 µM): 72%
- viability, T/C (second compound 0.0316 µM, first compound 3.16 µM): 31.6%
- viability, T/C (second compound 0.0316 µM, first compound 10 µM): 0.18%
- viability, T/C [1]: 66.5%
- viability, T/C [2]: 77.1%
- viability, T/C [3]: 79.5%
- viability, T/C [4]: 58.4%
- viability, T/C [5]: 29.5%
- viability, T/C [6]: 0.17%
- viability, T/C [7]: 78.7%
- viability, T/C [8]: 75.1%
- viability, T/C [9]: 63.7%
- viability, T/C [10]: 56%
- viability, T/C [11]: 20%
- viability, T/C [12]: 1.79%
- viability, T/C [13]: 66.5%
- viability, T/C [14]: 62.7%
- viability, T/C [15]: 62.3%
- viability, T/C [16]: 52.3%
- viability, T/C [17]: 24.4%
- viability, T/C [18]: 2.63%

SMILES: CCN1C(C(=O)NC23CCC(C(=O)O)(CC2)CC3)C(c2cccc(Cl)c2F)C2(C(=O)Nc3cc(Cl)ccc32)C12CCCCC2 (stereo not given) + CNC(C)C(=O)NC1CN(S(=O)(=O)c2cccc(S(=O)(=O)N3CCC4CCC(C(=O)NC(c5ccccc5)c5ccccc5)N4C(=O)C(NC(=O)C(C)NC)C3)c2)CCC2CCC(C(=O)NC(c3ccccc3)c3ccccc3)N2C1=O
- IC50 (second compound 0.01 µM): > 3 µM
- IC50 (second compound 0.0316 µM): > 3 µM
- IC50 (second compound 0.1 µM): > 3 µM
- IC50 (second compound 0.316 µM): > 3 µM
- IC50 (second compound 1 µM): > 3 µM
- viability, T/C (second compound 0.01 µM, first compound 0.00949 µM): 82.8%
- viability, T/C (second compound 0.01 µM, first compound 0.03 µM): 98.8%
- viability, T/C (second compound 0.01 µM, first compound 0.0949 µM): 97.1%
- viability, T/C (second compound 0.01 µM, first compound 0.3 µM): 86.2%
- viability, T/C (second compound 0.01 µM, first compound 0.949 µM): 92.2%
- viability, T/C (second compound 0.01 µM, first compound 3 µM): 86.9%
- viability, T/C (second compound 0.0316 µM, first compound 0.00949 µM): 83.2%
- viability, T/C (second compound 0.0316 µM, first compound 0.03 µM): 85.7%
- viability, T/C (second compound 0.0316 µM, first compound 0.0949 µM): 82.3%
- viability, T/C (second compound 0.0316 µM, first compound 0.3 µM): 87.8%
- viability, T/C (second compound 0.0316 µM, first compound 0.949 µM): 91.2%
- viability, T/C (second compound 0.0316 µM, first compound 3 µM): 102%
- viability, T/C (second compound 0.1 µM, first compound 0.00949 µM): 79%
- viability, T/C (second compound 0.1 µM, first compound 0.03 µM): 88.9%
- viability, T/C (second compound 0.1 µM, first compound 0.0949 µM): 84.3%
- viability, T/C (second compound 0.1 µM, first compound 0.3 µM): 67.7%
- viability, T/C (second compound 0.1 µM, first compound 0.949 µM): 90%
- viability, T/C (second compound 0.1 µM, first compound 3 µM): 90.3%
- viability, T/C (second compound 0.316 µM, first compound 0.00949 µM): 77.1%
- viability, T/C (second compound 0.316 µM, first compound 0.03 µM): 78.9%
- viability, T/C (second compound 0.316 µM, first compound 0.0949 µM): 77.6%
- viability, T/C (second compound 0.316 µM, first compound 0.3 µM): 84.9%
- viability, T/C (second compound 0.316 µM, first compound 0.949 µM): 73.4%
- viability, T/C (second compound 0.316 µM, first compound 3 µM): 69.7%
- viability, T/C (second compound 1 µM, first compound 0.00949 µM): 71.5%
- viability, T/C (second compound 1 µM, first compound 0.03 µM): 72.5%
- viability, T/C (second compound 1 µM, first compound 0.0949 µM): 65.9%
- viability, T/C (second compound 1 µM, first compound 0.3 µM): 68.4%
- viability, T/C (second compound 1 µM, first compound 0.949 µM): 68%
- viability, T/C (second compound 1 µM, first compound 3 µM): 72.4%

SMILES: Cn1ncnc1[C@H]1c2n[nH]c(=O)c3cc(F)cc(c23)N[C@@H]1c1ccc(F)cc1 + Cc1c(S(C)(=O)=O)c(-c2cc(F)cc(N3CCN(c4ccc(NS(=O)(=O)c5ccc(NC(CCN6CCC(C(=O)OCCCP(=O)(O)O)CC6)CSc6ccccc6)c(S(=O)(=O)C(F)(F)F)c5)cc4)CC3)c2)c(-c2ccc(Cl)cc2)n1C(C)C
- IC50 (second compound 0.1 µM): > 0.1 µM
- IC50 (second compound 0.316 µM): > 0.1 µM
- IC50 (second compound 1 µM): > 0.1 µM
- IC50 (second compound 3.16 µM): > 0.1 µM
- IC50 (second compound 10 µM): > 0.1 µM
- viability, T/C (second compound 0.1 µM, first compound 0.000316 µM): 67.5%
- viability, T/C (second compound 0.1 µM, first compound 0.001 µM): 88%
- viability, T/C (second compound 0.1 µM, first compound 0.00316 µM): 94.8%
- viability, T/C (second compound 0.1 µM, first compound 0.01 µM): 78%
- viability, T/C [1]: 84.4%
- viability, T/C [2]: 77.2%
- viability, T/C (second compound 0.316 µM, first compound 0.000316 µM): 84.9%
- viability, T/C (second compound 0.316 µM, first compound 0.001 µM): 81.1%
- viability, T/C (second compound 0.316 µM, first compound 0.00316 µM): 72%
- viability, T/C (second compound 0.316 µM, first compound 0.01 µM): 66.6%
- viability, T/C [7]: 79.9%
- viability, T/C [8]: 84%
- viability, T/C (second compound 1 µM, first compound 0.000316 µM): 79.5%
- viability, T/C (second compound 1 µM, first compound 0.001 µM): 84.2%
- viability, T/C (second compound 1 µM, first compound 0.00316 µM): 78.3%
- viability, T/C (second compound 1 µM, first compound 0.01 µM): 79.8%
- viability, T/C [13]: 73.7%
- viability, T/C [14]: 72.1%
- viability, T/C (second compound 3.16 µM, first compound 0.000316 µM): 74.3%
- viability, T/C (second compound 3.16 µM, first compound 0.001 µM): 73.2%
- viability, T/C (second compound 3.16 µM, first compound 0.00316 µM): 70.2%
- viability, T/C (second compound 3.16 µM, first compound 0.01 µM): 72.9%
- viability, T/C [19]: 64.4%
- viability, T/C [20]: 81.8%
- viability, T/C (second compound 10 µM, first compound 0.000316 µM): 86.4%
- viability, T/C (second compound 10 µM, first compound 0.001 µM): 69.2%
- viability, T/C (second compound 10 µM, first compound 0.00316 µM): 66.5%
- viability, T/C (second compound 10 µM, first compound 0.01 µM): 64.5%
- viability, T/C [21]: 62.7%
- viability, T/C [22]: 64.9%

SMILES: O=C(c1cc(Cc2n[nH]c(=O)c3ccccc23)ccc1F)N1CCN(C(=O)C2CC2)CC1 + Cc1c(S(C)(=O)=O)c(-c2cc(F)cc(N3CCN(c4ccc(NS(=O)(=O)c5ccc(NC(CCN6CCC(C(=O)OCCCP(=O)(O)O)CC6)CSc6ccccc6)c(S(=O)(=O)C(F)(F)F)c5)cc4)CC3)c2)c(-c2ccc(Cl)cc2)n1C(C)C
- IC50 (second compound 0.1 µM): > 10 µM
- IC50 (second compound 0.316 µM): > 10 µM
- IC50 (second compound 1 µM): > 10 µM
- IC50 (second compound 3.16 µM): > 10 µM
- IC50 (second compound 10 µM): > 10 µM
- viability, T/C [1]: 87.3%
- viability, T/C [2]: 81.3%
- viability, T/C [3]: 92.9%
- viability, T/C [4]: 96%
- viability, T/C [5]: 82.3%
- viability, T/C [6]: 77.2%
- viability, T/C [7]: 73.6%
- viability, T/C [8]: 90.2%
- viability, T/C [9]: 73.3%
- viability, T/C [10]: 89.8%
- viability, T/C [11]: 83.4%
- viability, T/C [12]: 66.8%
- viability, T/C [13]: 70.8%
- viability, T/C [14]: 69%
- viability, T/C [15]: 73.4%
- viability, T/C [16]: 78%
- viability, T/C [17]: 66.3%
- viability, T/C [18]: 66.4%
- viability, T/C [19]: 63.4%
- viability, T/C [20]: 75.6%
- viability, T/C (second compound 3.16 µM, first compound 0.316 µM): 67.6%
- viability, T/C (second compound 3.16 µM, first compound 1 µM): 65.8%
- viability, T/C (second compound 3.16 µM, first compound 3.16 µM): 66.9%
- viability, T/C (second compound 3.16 µM, first compound 10 µM): 57.9%
- viability, T/C [21]: 68%
- viability, T/C [22]: 80.7%
- viability, T/C (second compound 10 µM, first compound 0.316 µM): 60.6%
- viability, T/C (second compound 10 µM, first compound 1 µM): 54.2%
- viability, T/C (second compound 10 µM, first compound 3.16 µM): 57.1%
- viability, T/C (second compound 10 µM, first compound 10 µM): 77.5%
